Reference: ChEMBL document CHEMBL1142611, “Neovibsanin F and its congeners, rearranged vibsane-type diterpenes from Viburnum suspensum” (J Nat Prod, 2006)
In brackets after ≈: the same amount, converted by molar mass.

Assays:
KB = assay: Cytotoxicity against human KB cells; type: functional, cell-based
Artemia = assay: Toxicity in brine shrimp at 100 ug/mL; type: organism-based; details: in vivo
[1] = Toxicity in brine shrimp; type: organism-based; details: artemia, in vivo; read-out: LD50 (the source's name)

SMILES	IC50 (KB)	Activity (Artemia)	LC50 [1]
CC(=O)C[C@@H]1OCC2=C1[C@H](/C=C/OC(=O)C=C(C)C)[C@@](C)(CCC=C(C)C)C[C@H]2O [NEOVIBSANIN I]	18 µM	–	–
CC(=O)C[C@@H]1OCC2=C1[C@H](/C=C/OC(=O)C=C(C)C)[C@@]1(C)CC[C@H](C(C)(C)O)[C@@H]2C1	–	Not Active	–
CC(=O)C[C@@H]1OCC2=C1[C@H](/C=C/OC(=O)C=C(C)C)[C@@]1(C)CC[C@@H](C(C)(C)O)[C@@H]2C1 [NEOVIBSANIN F]	–	–	46 µg/mL (≈ 110 µM)
CC(=O)C[C@@H]1OC(=O)C2=C1[C@H](/C=C/OC(=O)C=C(C)C)[C@@]1(C)CC[C@H](C(C)(C)O)[C@@H]2C1	–	Not Active	–
CC(C)=CCC[C@]1(C)/C=C/[C@@H](OC(=O)C=C(C)C)[C@](C)(O)/C=C/C(=O)/C(CO)=C\C1 [VIBSANIN B]	3.5 µM	–	17.5 µg/mL (≈ 42 µM)
COc1cccc2c1C(=O)c1c(O)c3c(c(O)c1C2=O)C[C@@](O)(C(=O)CO)C[C@@H]3O[C@H]1C[C@H](N)[C@H](O)[C@H](C)O1 [DOXORUBICIN]	0.007 µM	–	–
